Measurements published in US20240309012A1, “ISOQUINOLINE COMPOUND, MANUFACTURING METHOD THEREFOR, AND APPLICATION THEREOF” (priority 2020, published 2024).
Read-outs that look alike come from different tables or passages of the source.

Columns and labels:
[1] = test system: 2019 novel coronavirus (SARS-CoV-2); experiment: Inhibition of 2019 novel coronavirus (SARS-CoV-2) replication in Vero E6 cells, virus copy number by qRT-PCR; format: cell-based
[2] = Cytotoxicity test on Vero E6 cells by CCK8 kit; format: cell-based; details: African green monkey
Experimental: (§1) In this example, the median toxic concentration (CC50) of each example on Vero E6 cells was analysed and determined by CCK8 kit.

Vero E6 cells = experiment: Cytotoxicity test on Vero E6 cells by CCK8 kit; format: cell-based
Experimental: as §1

SARS-CoV-2 = details: existing literature; cited from earlier work
[3] = Severe acute respiratory syndrome coronavirus 2, Vero C1008, Vero E6 cells, MOI 0.01, 24 h p.i., qRT-PCR of supernatant
[4] = Severe acute respiratory syndrome coronavirus 2, Vero C1008, 24 h

Molecule | EC50 [1, 3] [µM] | CC50 [2] [µM] | also measured
COc1ccc(NC(=O)c2ccc3cc2Oc2ccc(cc2)C[C@H]2c4cc(c(OC)cc4CCN2C)Oc2c(OC)c(OC)cc4c2[C@@H](C3)N(C)CC4)cc1 [Compound 59] | < 2 | 10.6 | –
COc1cc2c3cc1Oc1c(OC)c(OC)cc4c1[C@@H](Cc1ccc(C(=O)Nc5cccnc5)c(c1)Oc1ccc(cc1)C[C@@H]3N(C)CC2)N(C)CC4 [Compound 58] | < 2 | 26.4 | –
COc1cc2c3cc1Oc1c(OC)c(OC)cc4c1[C@@H](Cc1ccc(C(=O)Nc5ccccc5)c(c1)Oc1ccc(cc1)C[C@@H]3N(C)CC2)N(C)CC4 [Compound 51] | < 2 | 10.2 | –
COc1cc2c3cc1Oc1c(OC)c(OC)cc4c1[C@@H](Cc1ccc(C)c(c1)Oc1ccc(cc1)C[C@@H]3N(C)CC2)N(C)CC4 [Compound 41] | 2.45 | 10.2 | –
COc1cc2c3cc1Oc1c(OC)c(OC)cc4c1[C@@H](Cc1ccc(C(N)=O)c(c1)Oc1ccc(cc1)C[C@@H]3N(C)CC2)N(C)CC4 [Compound 9] | 0.55 | 63.2 | –
C=C(C)c1ccc2cc1Oc1ccc(cc1)C[C@H]1c3cc(c(OC)cc3CCN1C)Oc1c(OC)c(OC)cc3c1[C@@H](C2)N(C)CC3 [Compound 40] | 0.95 | 11.7 | –
COc1cc2c3cc1Oc1c(OC)c(OC)cc4c1[C@@H](Cc1ccc(C(=O)NCCOCCO)c(c1)Oc1ccc(cc1)C[C@@H]3N(C)CC2)N(C)CC4 [Compound 62] | < 2 | 123 | –
COc1cc2c3cc1Oc1c(OC)c(OC)cc4c1[C@@H](Cc1ccc(C(=O)NC5CC5)c(c1)Oc1ccc(cc1)C[C@@H]3N(C)CC2)N(C)CC4 [Compound 49] | < 2 | 62.3 | –
COC(=O)c1ccc2cc1Oc1ccc(cc1)C[C@H]1c3cc(c(OC)cc3CCN1C)Oc1c(OC)c(OC)cc3c1[C@@H](C2)N(C)CC3 [Compound 8] | 0.36 | 31.4 | –
COc1cc2c3cc1Oc1c(OC)c(OC)cc4c1[C@@H](Cc1ccc(C(=O)NC5CCCC5)c(c1)Oc1ccc(cc1)C[C@@H]3N(C)CC2)N(C)CC4 [Compound 28] | 2.4 | 22.5 | –
COc1cc2c3cc1Oc1c(OC)c(OC)cc4c1[C@@H](Cc1ccc(C5CC5)c(c1)Oc1ccc(cc1)C[C@@H]3N(C)CC2)N(C)CC4 [Compound 44] | 2.25 | 10.8 | –
CCCCNC(=O)Oc1ccc2cc1Oc1ccc(cc1)C[C@H]1c3cc(c(OC)cc3CCN1C)Oc1c(OC)c(OC)cc3c1[C@@H](C2)N(C)CC3 [Compound 4] | – | 31.5 | EC50 [1, 4]: 0.94 µM
Berbamine hydrochloride [reference compound] | – | – | EC50 [1]: 14.5 µM; CC50 (Vero E6 cells): 29.9 µM; Anti-novel coronavirus effect (in words) (SARS-CoV-2): not strong
COc1cc2c3cc1Oc1c(OC)c(OC)cc4c1[C@@H](Cc1ccc(C(C)=O)c(c1)Oc1ccc(cc1)C[C@@H]3N(C)CC2)N(C)CC4 [Compound 25] | < 2 | 29.4 | –
COc1cc2c3cc1Oc1c(OC)c(OC)cc4c1[C@@H](Cc1ccc(C(C)O)c(c1)Oc1ccc(cc1)C[C@@H]3N(C)CC2)N(C)CC4 (stereo partly drawn) [Compound 46] | 1.02 | 29.7 | –
COc1cc2c3cc1Oc1c(OC)c(OC)cc4c1[C@@H](Cc1cc(cc([N+](=O)[O-])c1)Oc1ccc(cc1)C[C@@H]3N(C)CC2)N(C)CC4 [Compound 33] | 0.63 | 24.3 | –

Molecule | EC50 [1, 3] [µM] | CC50 [2] [µM] | also measured
COc1cc2c3cc1Oc1c(OC)c(OC)cc4c1[C@@H](Cc1ccc(C(=O)NC5CCC5)c(c1)Oc1ccc(cc1)C[C@@H]3N(C)CC2)N(C)CC4 [Compound 57] | < 2 | 33.9 | –
C=CC(=O)Nc1ccc2cc1Oc1ccc(cc1)C[C@H]1c3cc(c(OC)cc3CCN1C)Oc1c(OC)c(OC)cc3c1[C@@H](C2)N(C)CC3 [Compound 42] | < 2 | 31.1 | –
COc1cc2c3cc1Oc1c(OC)c(OC)cc4c1[C@@H](Cc1ccc(C(=O)N5CCCCC5)c(c1)Oc1ccc(cc1)C[C@@H]3N(C)CC2)N(C)CC4 [Compound 47] | < 2 | 24.6 | –
COc1cc2c3cc1Oc1c(OC)c(OC)cc4c1[C@@H](Cc1cc(c5oc(=O)[nH]c5c1)Oc1ccc(cc1)C[C@@H]3N(C)CC2)N(C)CC4 [Compound 18] | 0.9 | 14.7 | –
CCCCCNC(=O)c1ccc2cc1Oc1ccc(cc1)C[C@H]1c3cc(c(OC)cc3CCN1C)Oc1c(OC)c(OC)cc3c1[C@@H](C2)N(C)CC3 [Compound 43] | 2.09 | 10.4 | –
COc1cc2c3cc1Oc1c(OC)c(OC)cc4c1[C@@H](Cc1ccc(C(=O)C5CC5)c(c1)Oc1ccc(cc1)C[C@@H]3N(C)CC2)N(C)CC4 [Compound 61] | < 2 | 13.7 | –
COc1cc2c3cc1Oc1c(OC)c(OC)cc4c1[C@@H](Cc1cccc(c1)Oc1ccc(cc1)C[C@@H]3N(C)CC2)N(C)CC4 [Compound 39] | 0.93 | 17.1 | –
COc1cc2c3cc1Oc1c(OC)c(OC)cc4c1[C@@H](Cc1ccc(C=O)c(c1)Oc1ccc(cc1)C[C@@H]3N(C)CC2)N(C)CC4 [Compound 2] | 1.19 | 102 | –
COc1cc2c3cc1Oc1c(OC)c(OC)cc4c1[C@@H](Cc1ccc(C#N)c(c1)Oc1ccc(cc1)C[C@@H]3N(C)CC2)N(C)CC4 [Compound 1] | 0.7 | 25.6 | –
COc1cc2c3cc1Oc1c(OC)c(OC)cc4c1[C@@H](Cc1ccc(OC(=O)CCCC[C@H]5CCSS5)c(c1)Oc1ccc(cc1)C[C@@H]3N(C)CC2)N(C)CC4 [Compound 5] | 1.5 | 172 | –
COc1cc2c3cc1Oc1c(OC)c(OC)cc4c1[C@@H](Cc1ccc(CO)c(c1)Oc1ccc(cc1)C[C@@H]3N(C)CC2)N(C)CC4 [Compound 3] | 1.12 | 70.5 | –
CCCCNC(=O)Oc1c(OC)cc2c3c1Oc1cc4c(cc1OC)CCN(C)[C@H]4Cc1ccc(cc1)Oc1cc(ccc1OC)C[C@H]3N(C)CC2 [Compound 53] | – | 22.2 | EC50 [1, 4]: < 2 µM
COc1cc2c3cc1Oc1c(OC)c(OC)cc4c1[C@@H](Cc1ccc(C(=O)Nc5ccc(C(F)(F)F)cc5)c(c1)Oc1ccc(cc1)C[C@@H]3N(C)CC2)N(C)CC4 [Compound 54] | < 2 | 10.5 | –
COc1cc2c3cc1Oc1c(OC)c(OC)cc4c1[C@@H](Cc1ccc(C(=O)OCCOCCO)c(c1)Oc1ccc(cc1)C[C@@H]3N(C)CC2)N(C)CC4 [Compound 65] | < 2 | 58.4 | –
COc1cc2c3cc1Oc1c(OC)c(OC)cc4c1[C@@H](Cc1ccc(C(=O)NC(C)C)c(c1)Oc1ccc(cc1)C[C@@H]3N(C)CC2)N(C)CC4 [Compound 55] | < 2 | 32 | –
